# Measured values reported in the supplement of paper PMC4862054.
# Assays:
# Conditions in all cases: incubation time: 72 h
# [1] = tested on: BT-474; test: normalised response (% of control), CellTox Green; higher = less cell death (100 = DMSO, 0 = benzethonium chloride kill control)
# In short: (§1)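 After 72 h with compound in 384-well plates, breast cancer cell lines seeded as 20 µl suspension were read for CellTox Green fluorescence at 485/520 nm. CellTiter-Glo luminescence was then read after 10 min at room temperature. Compound was present at 5 concentrations in 10-fold steps over a 10,000-fold range set per compound, and plates were normalised to 0.1 % DMSO (100) and a positive kill control (0). Values are normalised signals, each at a single concentration.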
# [2] = tested on: BT-549; test: as above
# In short: as §1
# [3] = tested on: CAL-120; test: as above
# In short: as §1
# [4] = tested on: CAL-148; test: as above
# In short: as §1
# [5] = tested on: CAL-51; test: as above
# In short: as §1
# [6] = tested on: CAL-85-1; test: as above
# In short: as §1
# [7] = tested on: DU-4475; test: as above
# In short: as §1
# [8] = tested on: HCC1143; test: as above
# In short: as §1
# [9] = tested on: HCC1599; test: as above
# In short: as §1
# [10] = tested on: HCC1937; test: as above
# In short: as §1
# [11] = tested on: HDQ-P1; test: as above
# In short: as §1
# [12] = tested on: Hs578T; test: as above
# In short: as §1
# [13] = tested on: MCF-10A; test: as above
# In short: as §1
# [14] = tested on: MDA-MB-231; test: as above
# In short: as §1
# [15] = tested on: MDA-MB-436; test: as above
# In short: as §1
# [16] = tested on: MDA-MB-453; test: as above
# In short: as §1
# [17] = tested on: MDA-MB-468; test: as above
# In short: as §1
# [18] = tested on: MFM-223; test: as above
# In short: as §1
# [19] = tested on: BT-474; test: normalised response (% of control), CellTiter-Glo; higher = more viable cells (100 = DMSO, 0 = benzethonium chloride kill control)
# In short: as §1
# [20] = tested on: BT-549; test: as above
# In short: as §1
# [21] = tested on: CAL-120; test: as above
# In short: as §1
# [22] = tested on: CAL-148; test: as above
# In short: as §1
# [23] = tested on: CAL-51; test: as above
# In short: as §1
# [24] = tested on: CAL-85-1; test: as above
# In short: as §1
# [25] = tested on: DU-4475; test: as above
# In short: as §1
# [26] = tested on: HCC1143; test: as above
# In short: as §1
# [27] = tested on: HCC1599; test: as above
# In short: as §1
# [28] = tested on: HCC1937; test: as above
# In short: as §1
# [29] = tested on: HDQ-P1; test: as above
# In short: as §1
# [30] = tested on: Hs578T; test: as above
# In short: as §1
# [31] = tested on: MCF-10A; test: as above
# In short: as §1
# [32] = tested on: MDA-MB-231; test: as above
# In short: as §1
# [33] = tested on: MDA-MB-436; test: as above
# In short: as §1
# [34] = tested on: MDA-MB-453; test: as above
# In short: as §1
# [35] = tested on: MDA-MB-468; test: as above
# In short: as §1
# [36] = tested on: MFM-223; test: as above
# In short: as §1
# [37] = tested on: SK-BR-3; test: as above
# In short: as §1
Compound,normalised response [1] [%],normalised response [2] [%],normalised response [3] [%],normalised response [4] [%],normalised response [5] [%],normalised response [6] [%],normalised response [7] [%],normalised response [8] [%],normalised response [9] [%],normalised response [10] [%],normalised response [11] [%],normalised response [12] [%],normalised response [13] [%],normalised response [14] [%],normalised response [15] [%],normalised response [16] [%],normalised response [17] [%],normalised response [18] [%],normalised response [19] [%],normalised response [20] [%],normalised response [21] [%],normalised response [22] [%],normalised response [23] [%],normalised response [24] [%],normalised response [25] [%],normalised response [26] [%],normalised response [27] [%],normalised response [28] [%],normalised response [29] [%],normalised response [30] [%],normalised response [31] [%],normalised response [32] [%],normalised response [33] [%],normalised response [34] [%],normalised response [35] [%],normalised response [36] [%],normalised response [37] [%]
CN(C)C/C=C/C(=O)Nc1cc2c(Nc3ccc(F)c(Cl)c3)ncnc2cc1O[C@H]1CCOC1 [Afatinib] (100 nM),81.3,116,101,102,107,55.7,101,111,112,135,90.9,100,85.5,113,87,102,110,101,90.6,98.5,92.9,75.1,118,65.9,98.1,100,94.1,89.8,64,108,32.4,103,98,77.3,87.2,106,27.5
COc1cc(Nc2ncc3c(n2)-c2ccc(Cl)cc2C(c2c(F)cccc2OC)=NC3)ccc1C(=O)O [Alisertib] (1000 nM),96,76.9,96.9,53.8,17.4,93.3,92.2,85.8,96.6,122,78.2,96.3,108,69.1,73.5,110,8.1,89.1,70.9,49.2,79.5,62.6,56.5,90.5,67.6,71.3,82.6,86.5,84.3,84.4,76.3,78,62,140,27.2,56.4,76
